Measured values: US11999732B2, “P2X3 receptor antagonists” (RECORDATI INDUSTRIA CHIMICA E FARMACEUTICA SPA, priority 2018, dated 2024)
Like-named read-outs stand apart in the source and are kept apart here.

Biological target: T1, human P2X3 receptor (Homo sapiens, UniProt P56373)
T1 construct: expressed in transfected cells; host or cells: CHO-K1
T1 sequence (P56373 1-397): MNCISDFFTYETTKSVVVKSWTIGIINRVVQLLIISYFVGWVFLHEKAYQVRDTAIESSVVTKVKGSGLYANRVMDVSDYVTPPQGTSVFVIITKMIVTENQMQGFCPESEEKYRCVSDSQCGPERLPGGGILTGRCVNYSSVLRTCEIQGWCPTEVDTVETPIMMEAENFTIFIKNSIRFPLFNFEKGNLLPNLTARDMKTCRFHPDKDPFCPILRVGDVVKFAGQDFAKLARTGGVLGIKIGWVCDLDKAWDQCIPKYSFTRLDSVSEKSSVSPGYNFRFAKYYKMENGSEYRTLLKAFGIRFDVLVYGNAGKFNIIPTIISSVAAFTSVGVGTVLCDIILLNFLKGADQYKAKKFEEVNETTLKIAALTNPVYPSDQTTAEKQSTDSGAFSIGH
Experiment: Calcium luminescence (photoprotein) assay in CHO-K1 cells co-expressing human P2X3 receptor, α,β-Met-ATP stimulation, FLEXSTATION readout
Format: cell-based
Conditions: human P2X3 receptor antagonist activity, CHO-K1 cells, α,β-Met-ATP, read-out: h-P2X3 IC50
Method: The assay for the human purinergic P2X3 receptor has been adapted to the internal screening instrumentation using the FLEXSTATION as reader and a photoprotein as luminescent readout. The assay consists of CHO-K1 cells recombinantly co-expressing the human P2rx3 receptor and a Ca^2+ sensitive photoprotein. Cells are maintained in DMEM F-12 (1:1) mixture (LONZA cat. no BE04-687F/U1) supplemented with 9 mL of 100 mM Sodium Pyruvate (LONZA cat. no BE13-115E), 29 mL of 7.5% Sodium Bicarbonate (LONZA cat. no: BE17-613E), 5.5 mL of 1 M Hepes (LONZA cat. no BE17-737E), 5 mL of 100× Penicillin/Streptomycin (LONZA cat. no DE17-602E) and 50 mL of Fetal Bovine Serum (Sigma cat. no F7524), 1 mg/mL G418 (Sigma cat. no G8168) and 5 µg/ml puromycin (Sigma cat. no P9620). Standard propagation conditions consist of seeding in a P75 flask twice a week, recovering about 20×10^6 cells, corresponding to about 80% confluency. Cells were seeded into black-walled clear bottom 96 well plates at a density of 40000 cells/well in a Tyrode's buffer (Standard Tyrode's buffer: in house solution, 130 mM NaCl, 5 mM KCl, 2 mM CaCl2, 5 mM NaHCO3, 1 mM MgCl2, 20 mM HEPES, pH 7.4). After 24 h the culture medium was replaced with 200 μL/well of coelenterazine in Tyrode's buffer (Coelenterazine: from BIOSYNTH (cat. no C-7001). 10 mM stock solution was prepared in DMSO and glutathione and stored at −20° C.). The plates were incubated for 4 hours at 37° C., and injected with 10 μL/well of test compounds at 25× concentration in Tyrode's buffer. After 4 minutes a second injection of 50 μL/well of 5× α,β-Met-ATP in Tyrode's buffer (α,β-Met-ATP: from Tocris (cat. no 3209), was dissolved at 100 mM in water and stored in aliquots at −20° C.) was performed and the signal of the emitted luminescence was recorded by FLEXSTATION III (Molecular Devices).
The inhibition curves of the tested compounds at cloned P2X3 receptor were determined by nonlinear regression analysis using software Prism 4.0 (Graphpad, San Diego, Calif.). The IC50 values and pseudo-Hill slope coefficients were estimated by the program.

SMILES | IC50 (Table 6) [nM] | IC50 (Table 7) [nM] | further results
COc1ccc(Cc2nn3c(CC4CCOCC4)nnc3c3ncc(N4CCOCC4)cc23)cc1 [Example 125, 6-(4-methoxybenzyl)-8-(morpholin-4-yl)-3-(tetrahydro-2H-pyran-4-ylmethyl)pyrido[2,3-d][1,2,4]triazolo[4,3-b]pyridazine] |  |  | IC50 (Table 8): 538 nM
CC(C)(C)c1nnc2c3ncc(N4CCOCC4)cc3n(Cc3ccc(Cl)cn3)c(=O)n12 [Example 173, 3-tert-butyl-6-[(5-chloropyridin-2-yl)methyl]-8-(morpholin-4-yl)pyrido[2,3-e][1,2,4]triazolo[4,3-c]pyrimidin-5(6H)-one] |  |  | IC50 (Table 9): 2.59 nM
Cc1ccc(Cc2nn3c(CC4CCOCC4)nnc3c3ncc(N4CCOCC4)cc23)cc1 [Example 117, 6-(4-methylbenzyl)-8-(morpholin-4-yl)-3-(tetrahydro-2H-pyran-4-ylmethyl)pyrido[2,3-d][1,2,4]triazolo[4,3-b]pyridazine] |  |  | IC50 (Table 8): 197 nM
O=C(C1CN2C(=O)N(Cc3ccc(Cl)cc3)c3cc(N4CCOCC4)cnc3C2=N1)N1CCOCC1 (stereo not drawn) [Example 54, 6-(4-chlorobenzyl)-8-(morpholin-4-yl)-2-(morpholin-4-ylcarbonyl)-2,6-dihydroimidazo[1,2-c]pyrido[2,3-e]pyrimidin-5(3H)-one] | 1700 |  | 
COc1ccc(CN2C(=O)N3C(=NCC3C3CCCCC3)c3ncc(N4CCOCC4)cc32)cc1 (stereo not drawn) [Example 24, 3-cyclohexyl-6-(4-methoxybenzyl)-8-(morpholin-4-yl)-2,6-dihydroimidazo[1,2-c]pyrido[2,3-e]pyrimidin-5(3H)-one] | 515 |  | 
Cc1ccc(Cn2c(=O)n3cc(CC(C)C)nc3c3ncccc32)cc1 [Example 72, 6-(4-methylbenzyl)-2-(2-methylpropyl)imidazo[1,2-c]pyrido[2,3-e]pyrimidin-5(6H)-one] |  | 1390 | 
COc1cc(CN2C(=O)N3C(=NCC3C3CCCCC3)c3ncc(N4CCOCC4)cc32)cc(OC)c1 (stereo not drawn) [Example 44, 3-cyclohexyl-6-(3,5-dimethoxybenzyl)-8-(morpholin-4-yl)-2,6-dihydroimidazo[1,2-c]pyrido[2,3-e]pyrimidin-5(3H)-one] | 491 |  | 
O=c1n(Cc2ccc(Cl)cc2)c2cc(N3CCOCC3)cnc2c2nnc(COC3CCOCC3)n12 [Example 188, 6-(4-chlorobenzyl)-8-(morpholin-4-yl)-3-[(tetrahydro-2H-pyran-4-yloxy)methyl]pyrido[2,3-e][1,2,4]triazolo[4,3-c]pyrimidin-5(6H)-one] |  |  | IC50 (Table 9): 528 nM
COCC1CN(c2cnc3c(c2)N(Cc2ccc(Cl)cc2)C(=O)N2CC(C(C)C)N=C32)C1 (stereo not drawn) [Example 17, 6-(4-chlorobenzyl)-8-[3-(methoxymethyl)azetidin-1-yl]-2-(propan-2-y1)-2,6-dihydroimidazo[1,2-c]pyrido[2,3-e]pyrimidin-5(3H)-one] | 690 |  | 
COc1cc(CN2C(=O)N3CCN=C3c3ncc(N4CCOCC4)cc32)cc(OC)c1 [Example 7, 6-(3,5-dimethoxybenzyl)-8-(morpholin-4-yl)-2,6-dihydroimidazo[1,2-c]pyrido[2,3-e]pyrimidin-5(3H)-one] | 1640 |  | 
COc1cc(Cc2nn3c(CC(C)C)nnc3c3ncc(N4CCOCC4)cc23)cc(OC)c1 [Example 116, 6-(3,5-dimethoxybenzyl)-3-(2-methylpropyl)-8-(morpholin-4-yl)pyrido[2,3-d][1,2,4]triazolo[4,3-b]pyridazine] |  |  | IC50 (Table 8): 469 nM
COc1ccc(CN2C(=O)N3C(=NCC3c3ccccc3)c3ncc(N4CCOCC4)cc32)cc1 (stereo not drawn) [Example 29, 6-(4-methoxybenzyl)-8-(morpholin-4-yl)-3-phenyl-2,6-dihydroimidazo[1,2-c]pyrido[2,3-e]pyrimidin-5(3H)-one] | 368 |  | 
COc1ccc(Cn2c(=O)n3c(C)c(C(C)C)nc3c3ncc(N4CCOCC4)cc32)cc1 [Example 89, 6-(4-methoxybenzyl)-3-methyl-8-(morpholin-4-yl)-2-(propan-2-yl)imidazo[1,2-c]pyrido[2,3-e]pyrimidin-5(6H)-one] |  | 575 | 
O=C1N2CC(c3ccccc3)N=C2c2ncc(N3CCOCC3)cc2N1Cc1ccc(Cl)cc1 (stereo not drawn) [Example 36, 6-(4-chlorobenzyl)-8-(morpholin-4-y1)-2-phenyl-2,6-dihydroimidazo[1,2-c]pyrido[2,3-e]pyrimidin-5(3H)-one] | 245 |  | 
COc1ccc(Cn2c(=O)n3cc(CC(C)C)nc3c3ncc(N4CCOCC4)cc32)cc1 [Example 78, 6-(4-methoxybenzyl)-2-(2-methylpropyl)-8-(morpholin-4-yl)imidazo[1,2-c]pyrido[2,3-e]pyrimidin-5(6H)-one] |  | 631 | 
COc1cc(Cn2c(=O)n3c(C)c(C(C)C)nc3c3ncc(NCC4COC4)cc32)cc(OC)c1 [Example 83, 6-(3,5-dimethoxybenzyl)-3-methyl-8-[(oxetan-3-ylmethyl)amino]-2-(propan-2-yl)imidazo[1,2-c]pyrido[2,3-e]pyrimidin-5(6H)-one] |  | 292 | 
COC1CCN(c2cnc3c(c2)N(Cc2ccc(Cl)cc2)C(=O)N2CC(C(C)C)N=C32)CC1 (stereo not drawn) [Example 16, 6-(4-chlorobenzyl)-8-(4-methoxypiperidin-1-yl)-2-(propan-2-yl)-2,6-dihydroimidazo[1,2-c]pyrido[2,3-e]pyrimidin-5(3H)-one] | 2230 |  | 
Cc1ncccc1Cc1nnc2c3ncc(N4CCOCC4)cc3n(Cc3ccc(Cl)cc3)c(=O)n12 [Example 106, 6-(4-chlorobenzyl)-3-[(2-methylpyridin-3-yl)methyl]-8-(morpholin-4-yl)pyrido[2,3-e][1,2,4]triazolo[4,3-c]pyrimidin-5(6H)-one] |  | 40.6 | 
Cc1c(C(C)C)nc2c3ncc(C(=O)NCCO)cc3n(Cc3ccc(Cl)cc3)c(=O)n12 [Example 95, 6-(4-chlorobenzyl)-n-(2-hydroxyethyl)-3-methyl-5-oxo-2-(propan-2-y1)-5,6-dihydroimidazo[1,2-c]pyrido[2,3-e]pyrimidine-8-carboxamide] |  | 2980 | 
COc1cc(Cn2c(=O)n3c(C)c(C)nc3c3ncc(N4CCOCC4)cc32)cc(OC)c1 [Example 82, 6-(3,5-dimethoxybenzyl)-2,3-dimethyl-8-(morpholin-4-yl)imidazo[1,2-c]pyrido[2,3-e]pyrimidin-5(6H)-one] |  | 332 | 
COCC1CN(c2cnc3c(c2)c(Cc2ccc(OC)cc2)nn2c(CC(C)C)nnc32)C1 [Example 124, 6-(4-methoxybenzyl)-8-[3-(methoxymethyl)azetidin-1-yl]-3-(2-methylpropyl)pyrido[2,3-d][1,2,4]triazolo[4,3-b]pyridazine] |  |  | IC50 (Table 8): 2820 nM
COCC1CN=C2c3ncc(N4CCOCC4)cc3N(Cc3ccc(Cl)cc3)C(=O)N21 (stereo not drawn) [Example 13, 6-(4-chlorobenzyl)-3-(methoxymethyl)-8-(morpholin-4-y1)-2,6-dihydroimidazo[1,2-c]pyrido[2,3-e]pyrimidin-5(3H)-one] | 1260 |  | 
COc1ccc(Cn2c(=O)n3c(C)c(C(C)C)nc3c3ncc(N4CC5(COC5)C4)cc32)cc1 [Example 93, 6-(4-methoxybenzyl)-3-methyl-8-(2-oxa-6-azaspiro[3.3]heptan-6-yl)-2-(propan-2-yl)imidazo[1,2-c]pyrido[2,3-e]pyrimidin-5(6H)-one] |  | 1010 | 
CC(C)(C)OC(=O)NC1CCN(c2cnc3c(c2)c(Cc2ccc(Cl)cc2)nn2c(C(C)(C)C)nnc32)CC1 [Example 138, tert-butyl n-[1-[5-tert-butyl-8-(4-chlorobenzyl)-3,4,6,7,13-pentazatricyclo[7.4.0.02,6]trideca-1(9),2,4,7,10,12-hexaen-11-yl]-4-piperidyl]carbamate] |  |  | IC50 (Table 8): 3340 nM
